Data as given in patent publication US20040106578A1, “Fungicidal compositions based on pyridylmethylbenzamide derivatives and at least one complex III inhibiting compound” (priority 2001, published 2004).

Tested on: Plasmopara viticola
Assay: Test of a composition against vine downy mildew, preventive action, on grapevine plants
Format: in vivo
Details: grapevine var. Chardonnay sprayed 3 days before inoculation, evaluated 7 days after contamination, Abbott formula, untreated control 90% sporulated surface
Method: Test of a Composition Against Vine Downy Mildew (Plasmopara Viticola; Preventive Action)
Grapevine plants are grown (var. Chardonnay) on sandy soil in plastic pots, with one plant per pot. The plants which are two months old (6 to 7 developed leaves) are sprayed with compound (I) and compound (II), either alone, or as a mixture.
The fungicidal active ingredients, either alone, or as a mixture, are applied at a dose equivalent to 500 litres/ha.
The compound (I)/compound (II) ratio studied is 1/2.
Three days after the treatment, each plant is inoculated by spraying an aqueous suspension of Plasmopara viticola sporangia obtained from contaminated leaves. The sporangium concentration is about 100 000 units per ml.
After contamination, the plants are incubated for two days at 18° C. under a saturated atmosphere, and then for 5 days at about 20° C. with a relative humidity of 90-100%.
Seven days after the contamination, the symptoms are evaluated in terms of underside surface of the leaves which are infected, compared with the untreated but contaminated plants.
The efficacy of the treatment is calculated using the following Abbott formula: [formula]
The concentrations of the fungicides, alone or as a mixture, giving 50%, 70% or 90% efficacy for each component, in the appropriate test, are determined based on the dose/response sigmoid curve model and their corresponding confidence intervals. […]

## CSC1=N[C@@](C)(c2ccccc2)C(=O)N1Nc1ccccc1 [Fenamidone, (S)-1-anilino-4-methyl-2-methylthio-4-phenylimidazolin-5-one]
10 mg/l
  Efficacy (%): 72%

## O=C(NCc1ncc(C(F)(F)F)cc1Cl)c1c(Cl)cccc1Cl [Compound (Ia), 2,6-dichloro-N-{[3-chloro-5-(trifluoromethyl)-2-pyridinyl]methyl}benzamide]
5 mg/l
  Efficacy (%): 40%
